In ChEMBL document CHEMBL1649149, “Sitafloxacin and garenoxacin may overcome the antibiotic resistance of Helicobacter pylori with gyrA mutation” (2009):
Converted amounts (≈) assume the structure as drawn.

Key:
Assay type in all cases: functional
Helicobacter pylori [1] = test: Antibacterial activity against Helicobacter pylori infected in human assessed as bacterial eradication rate at 20 mg, po BID for 7 days
Helicobacter pylori [2] = test: Antibacterial activity against Helicobacter pylori infected in human assessed as bacterial eradication rate at 1 g, po BID for 7 days
Helicobacter pylori [3] = test: Antibacterial activity against Helicobacter pylori harboring gyrA mutant gene infected in human assessed as bacterial eradication rate after 7 days
Helicobacter pylori [4] = test: Antibacterial activity against Helicobacter pylori infected in human assessed as bacterial eradication rate at 400 mg, po QD for 7 days
Helicobacter pylori [5] = test: Antibacterial activity against Helicobacter pylori harboring gyrA mutant gene by agar dilution method
Helicobacter pylori [6] = test: Antibacterial activity against Helicobacter pylori harboring gyrA mutant gene
Helicobacter pylori [7] = test: Antibacterial activity against Helicobacter pylori harboring gyrA mutant gene assessed as resistant isolates
Helicobacter pylori [8] = test: Antibacterial activity against Helicobacter pylori infected in human assessed as bacterial eradication rate at 20 mg, po BID for 10 days by 13C-urea breath test
Helicobacter pylori [9] = test: Antibacterial activity against GAT-susceptible Helicobacter pylori infected in human assessed as bacterial eradication rate for 7 days
Helicobacter pylori [10] = test: Antibacterial activity against Helicobacter pylori

SMILES | Activity (Helicobacter pylori [1]) [%] | Activity (Helicobacter pylori [2]) [%] | Activity (Helicobacter pylori [3]) [%] | Activity (Helicobacter pylori [4]) [%] | MIC50 (Helicobacter pylori [5]) [µg/mL] | MIC90 (Helicobacter pylori [5]) [µg/mL] | other results
CC1(C)S[C@@H]2[C@H](NC(=O)[C@H](N)c3ccc(O)cc3)C(=O)N2[C@H]1C(=O)O [AMOXICILLIN] | 84.4 | 84.4 | 33.3 | 84.4 |  |  | 
C[C@H]1NCc2cc(-c3ccc4c(=O)c(C(=O)O)cn(C5CC5)c4c3OC(F)F)ccc21 [GARENOXACIN] |  |  |  |  | 0.5 (≈ 1.17 µM) | 1 (≈ 2.35 µM) | 
COc1c(N2CCNC(C)C2)c(F)cc2c(=O)c(C(=O)O)cn(C3CC3)c12 (configuration not stated) [GATIFLOXACIN] | 84.4 | 84.4 | 33.3 | 84.4 | 2 (≈ 5.33 µM) | 4 (≈ 10.7 µM) | MIC (Helicobacter pylori [6]): ≥ 1 µg/mL; Activity (Helicobacter pylori [7]): 47.9%
COc1ccc2[nH]c([S+]([O-])Cc3ncc(C)c(OC)c3C)nc2c1 (configuration not stated) [OMEPRAZOLE] |  |  |  |  |  |  | Activity (Helicobacter pylori [8]): 66%
COCCCOc1ccnc(C[S+]([O-])c2nc3ccccc3[nH]2)c1C (configuration not stated) [RABEPRAZOLE] | 84.4 | 84.4 |  | 84.4 |  |  | Activity (Helicobacter pylori [9]): 100%
N[C@@H]1CN(c2c(F)cc3c(=O)c(C(=O)O)cn([C@@H]4C[C@@H]4F)c3c2Cl)CC12CC2 [SITAFLOXACIN ANHYDROUS] |  |  |  |  | 0.12 (≈ 0.293 µM) | 0.25 (≈ 0.61 µM) | MIC90 (Helicobacter pylori [10]): < 0.008 µg/mL
